Results from article PMC11673046, “Characterization of a Pyranose Oxidase/C-Glycoside Oxidase from Microbacterium sp. 3H14, Belonging to the Unexplored Clade II of Actinobacterial POx/CGOx” (Biomolecules, 2024).
Where two headings read alike, the source gives them in different places.

Assays:
Format in all cases: biochemical, Microbacterium sp. 3H14
[1] = tested on: MPOx
[2] = molecular target: MPOx; remark: listed apart in the source
[3] = tested on: MPOx; remark: listed apart in the source

| SMILES | Km [1] [µM] | Ki [2] [µM] | Km [3] [µM] |
| --- | --- | --- | --- |
| O=C(CCc1ccc(O)c(O)c1)c1c(O)cc(O)c([C@@H]2O[C@H](CO)[C@@H](O)[C@H](O)[C@H]2O)c1O [Aspalathin] | 85 ± 14 | 300 ± 50 | – |
| OC[C@H]1OC(O)[C@H](O)[C@@H](O)[C@@H]1O (stereo partly drawn) [D-glucose] | – | – | 660 ± 30 |
| OC1OC[C@@H](O)[C@H](O)[C@H]1O (stereo partly drawn) [D-xylose] | – | – | 19000 ± 1000 |
| O=C(CCc1ccc(O)cc1)c1c(O)cc(O)cc1O[C@@H]1O[C@H](CO)[C@@H](O)[C@H](O)[C@H]1O [Phlorizin] | 57 ± 6 | 480 ± 50 | – |
